Details in all cases: -v- tritiated LGD1069 and tritiated 9-cis retinoic acid
One assay deals with T1, RXRα (Homo sapiens, UniProt P19793).
T1 sequence (P19793 1-462): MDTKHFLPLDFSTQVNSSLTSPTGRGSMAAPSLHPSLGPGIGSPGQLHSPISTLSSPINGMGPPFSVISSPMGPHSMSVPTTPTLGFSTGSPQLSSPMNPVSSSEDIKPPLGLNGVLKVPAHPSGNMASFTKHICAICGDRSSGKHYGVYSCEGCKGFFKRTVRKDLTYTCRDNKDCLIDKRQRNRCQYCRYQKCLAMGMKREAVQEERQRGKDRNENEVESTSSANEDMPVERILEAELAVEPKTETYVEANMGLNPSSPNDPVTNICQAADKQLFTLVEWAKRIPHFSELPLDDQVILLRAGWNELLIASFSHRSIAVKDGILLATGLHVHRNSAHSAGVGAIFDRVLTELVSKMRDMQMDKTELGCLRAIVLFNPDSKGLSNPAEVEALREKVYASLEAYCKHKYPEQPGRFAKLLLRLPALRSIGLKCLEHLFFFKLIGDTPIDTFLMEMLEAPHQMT
In words: RXR binding, RXRα. The protocol:
(§1) Non-specific binding was defined as that binding remaining in the presence of 500 nM of the appropriate unlabelled compound. At the end of the incubation period, bound from free ligand were separated. The amount of bound tritiated retinoids was determined by liquid scintillation counting of an aliquot (700 μL) of the supernatant fluid or the hydroxylapatite pellet.
(§2) After correcting for non-specific binding, IC50 values were determined. […] The IC50 value was determined graphically from a log-logit plot of the data. The Kd values were determined by application of the Cheng-Prussof equation to the IC50 values, the labeled ligand concentration and the Kd of the labeled ligand.

A further assay concerns the target T2, RXRβ (Mus musculus, UniProt P28704).
T2 sequence (P28704 1-520): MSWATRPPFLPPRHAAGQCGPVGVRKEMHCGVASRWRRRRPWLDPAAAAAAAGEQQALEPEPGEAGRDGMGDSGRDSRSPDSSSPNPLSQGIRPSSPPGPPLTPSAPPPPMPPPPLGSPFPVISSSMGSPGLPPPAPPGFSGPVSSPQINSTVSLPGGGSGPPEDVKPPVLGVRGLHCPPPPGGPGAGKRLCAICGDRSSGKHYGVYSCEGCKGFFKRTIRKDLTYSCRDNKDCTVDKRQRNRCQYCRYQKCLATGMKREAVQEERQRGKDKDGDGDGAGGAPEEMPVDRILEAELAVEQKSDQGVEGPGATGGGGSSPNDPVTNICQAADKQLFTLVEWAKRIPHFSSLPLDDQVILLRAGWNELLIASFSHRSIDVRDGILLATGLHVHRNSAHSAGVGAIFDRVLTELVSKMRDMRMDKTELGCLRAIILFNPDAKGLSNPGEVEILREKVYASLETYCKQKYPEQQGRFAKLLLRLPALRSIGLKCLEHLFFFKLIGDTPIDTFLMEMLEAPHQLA
In words: RXR binding, RXRβ. The protocol: as §1, §2

The target in a further assay is T3, RXRγ (Mus musculus, UniProt P28705).
T3 sequence (P28705 1-463): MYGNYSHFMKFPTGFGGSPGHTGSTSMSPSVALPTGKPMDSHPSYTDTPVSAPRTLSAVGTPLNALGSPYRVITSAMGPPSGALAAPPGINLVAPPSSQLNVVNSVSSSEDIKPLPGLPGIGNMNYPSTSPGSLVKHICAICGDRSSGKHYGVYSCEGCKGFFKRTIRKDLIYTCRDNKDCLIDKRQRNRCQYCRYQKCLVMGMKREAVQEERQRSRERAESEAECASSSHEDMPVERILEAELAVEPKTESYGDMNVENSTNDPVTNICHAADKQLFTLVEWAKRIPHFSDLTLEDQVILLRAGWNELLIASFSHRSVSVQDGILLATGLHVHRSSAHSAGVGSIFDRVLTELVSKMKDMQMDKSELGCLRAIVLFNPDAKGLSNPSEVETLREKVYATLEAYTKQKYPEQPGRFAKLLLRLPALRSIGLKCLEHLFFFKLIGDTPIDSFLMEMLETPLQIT
The assay can be described thus: RXR binding, RXRγ. The protocol:
as §1, §2

Structures are written as SMILES.

The Kd is the concentration at which binding is half-saturated. Read a high Kd as weaker binding. In the case of `CCCCCCOc1cc2c(cc1/C(C)=C/C=C/C(C)=C/C(=O)O)C(C)(C)CCC2(C)C` [Compound 125, (2E, 4E, 6E)-7-[3-hexyloxy-5,6,7,8-tetrahydro-5,5,8,8-tetramethyl-2-naphthalen-2-yl]-3-methylocta-2,4,6-trienoic acid], the dissociation constant (Kd) at RXRα worked out at 56 nM; on RXRβ, 145 nM; on RXRγ it was 186 nM.
In the case of `COC(C)(c1ccc(C(=O)O)cc1)c1cccc2cc3c(cc12)C(C)(C)CCC3(C)C` (stereo not drawn) [Compound 141, 4-[1-methoxy-1-(5,6,7,8-tetrahydro-5,5,8,8-tetramethyl-anthracen-1-yl)ethyl)benzoic acid], the Kd at RXRα was determined as 49 nM; at RXRβ, 13 nM; at RXRγ, 70 nM.
As to `C=C(c1ccc(C(=O)O)cc1)c1cccc2cc3c(cc12)C(C)(C)CCC3(C)C` [Compound 142, 4-[1-(5,6,7,8-tetrahydro-5,5,8,8-tetramethyl-anthracen-1-yl)vinyl)benzoic acid], the equilibrium dissociation constant (Kd) at RXRα came out at 27 nM; on RXRβ, 90 nM; at RXRγ it was 50 nM.
On the same counts, the results for `CCCCCCCOc1c(/C(C)=C/C=C/C(C)=C/C(=O)O)cc(C(C)C)cc1C(C)C` [Compound 146, (2E, 4E, 6E)-7-(3,5-diisopropyl-2-n-heptyloxyphenyl)-3-methylocta-2,4,6-trienoic acid] are 46 nM, 100 nM and 116 nM.
On the same counts, the results for `CCCCCCCOc1c(C(C)C)cc(C(C)C)cc1C(C)C/C=C/C(C)=C/C(=O)O` (stereo not drawn) [Compound 148, (2E, 4E)-7-(3,5-diisopropyl-2-n-heptyloxyphenyl)-3-methylocta-2,4-dienoic acid] are 53 nM, 87 nM and 84 nM.
On the same counts, the results for `CCCCCCCOc1c(C(C)C)cc(C(C)C)cc1C(C)C/C=C/C(C)=C\C(=O)O` (stereo not drawn) [Compound 149, (2Z, 4E)-7-(3,5-diisopropyl-2-n-heptyloxyphenyl)-3-methylocta-2,4-dienoic acid] are 16 nM, 37 nM and 42 nM.
Turning to `CCCOc1cc2c(cc1C1=C(/C=C/C(C)=C/C(=O)O)CCC1)C(C)(C)CCC2(C)C` [Compound 158, (2E, 4E)-5-[2-(5,5,8,8-tetramethyl-3-propyloxy-5,6,7,8-tetrahydronaphthalen-2yl)cyclopent-1-en-1-yl]-3-methyl pentadienoic cid], the dissociation constant (Kd) on RXRα is 21 nM; at RXRβ, 53 nM; on RXRγ it was 106 nM.
On the same counts, the results for `CON=C(c1ccc(C(=O)O)cc1)c1cc2c(cc1OCc1ccccc1)C(C)(C)CCC2(C)C` [Compound 163, trans-4-[(3-benzyloxy-5,6,7,8-tetrahydro-5,5,8,8-tetramethyl-2-naphthyl)carbonyl]benzoic acid O-methyloxime] are 2 nM, 6 nM and 6 nM.
On the same counts, the results for `CC(C=CC=C(C)c1cc2c(cc1OCC(C)C)C(C)(C)CCC2(C)C)=CC(=O)O` [Compound 169, (2E, 4E, 6Z)-7-[3-isobutyloxy-5,6,7,8-tetrahydro-5,5,8,8-tetramethyl-2-naphthalen-2-yl]-3-methyl-octa-2,4,6-trienoic acid] are 5 nM, 14 nM and 31 nM.
`CCCCCOc1cc2c(cc1/C(C)=C/C=C/C(C)=C/C(=O)O)C(C)(C)CCC2(C)C` [Compound 170, (2E, 4E, 6E)-7-[3-pentyloxy-5,6,7,8-tetrahydro-5,5,8,8-tetramethyl-2-naphthalen-2-yl]-3-methyl-octa-2,4,6-trienoic acid]: the dissociation constant (Kd) on RXRα worked out at 11 nM; at RXRβ, 41 nM; on RXRγ, 78 nM.
On the same counts, the results for `CCCCCCCOc1cc2c(cc1\C(C)=C/C=C/C(C)=C/C(=O)O)C(C)(C)CCC2(C)C` [Compound 173, (2E, 4E, 6Z)-7-[3-heptyloxy-5,6,7,8-tetrahydro-5,5,8,8-tetramethyl-2-naphthalen-2-yl]-3-methyl-octa-2,4,6-trienoic acid] are 4 nM, 12 nM and 21 nM.

The values are drawn from patent US6545049B1, “Dimer-selective RXR modulators and methods for their use” (Ligand Pharmaceuticals Incorporated, priority 1995, dated 2003).
